Results taken from ChEMBL document CHEMBL3763154, “Dispirocyclopropyldehydrocostus lactone selectively inhibits acute myelogenous leukemia cells” (Bioorg Med Chem Lett, 2016).
pIC50: −log10 of the molar value. Calls of active or inactive are those of the source. The rule behind the calls is not given here.

Assays:
[1] = Cytotoxicity against human HL60/ADR cells after 72 hrs by MTT assay; format: functional, cell-based
[2] = Cytotoxicity against human HL60 cells after 72 hrs by MTT assay; format: functional, cell-based; conditions: HL-60, 72 h
[3] = Cytotoxicity against human KG1a cells after 72 hrs by MTT assay; format: functional, cell-based; conditions: KG-1a
[4] = Cytotoxicity against human K562/A02 cells after 72 hrs by MTT assay; format: functional, cell-based; conditions: K562/A02, 72 h
K562 = assay: Cytotoxicity against human K562 cells after 72 hrs by MTT assay; format: functional, cell-based; conditions: K562, 72 h
Mus musculus = assay: Toxicity in SCID mouse xenografted with KG1a cells assessed as effect on body weight at 50 mg/kg, po administered every other day for 7 times; format: organism-based; conditions: in vivo
KG-1a [5] = assay: Antitumor activity against human KG1a cells xenografted in SCID mice assessed as inhibition of tumor growth at 50 mg/kg, po administered every other day for 7 times; format: functional, organism-based
KG-1a [6] = assay: Antitumor activity against human KG1a cells xenografted in SCID mice assessed as reduction in tumor weight at 50 mg/kg, po administered every other day for 7 times measured after 1 month; format: functional, organism-based
KG-1a [7] = assay: Induction of apoptosis in human KG1a cells assessed as necrotic cells at 20 uM after 24 hrs by Annexin V-FITC/PI staining based flow cytometry (Rvb=0.227%); format: functional
KG-1a [8] = assay: Induction of apoptosis in human KG1a cells assessed as viable cells at 20 uM after 24 hrs by Annexin V-FITC/PI staining based flow cytometry (Rvb=95.1%); format: functional; conditions: read-out: Activity
[9] = Cytotoxicity against human CD38 deficient CD34-positive leukemia stem/progenitor AML cells assessed as cell viability at 5 uM after 18 hrs by annexin staining based assay; format: functional; conditions: read-out: Activity
[10] = Cytotoxicity against human CD38 deficient CD34-positive leukemia stem/progenitor AML cells assessed as cell viability at 10 uM after 18 hrs by annexin staining based assay; format: functional; conditions: read-out: Activity
[11] = Cytotoxicity against human CD34-positive leukemia stem/progenitor AML cells assessed as cell viability at 5 uM after 18 hrs by annexin staining based assay; format: functional; conditions: read-out: Activity
[12] = Cytotoxicity against human CD34-positive leukemia stem/progenitor AML cells assessed as cell viability at 10 uM after 18 hrs by annexin staining based assay; format: functional; conditions: read-out: Activity
KG-1a [13] = assay: Induction of apoptosis in human KG1a cells assessed as late apoptotic cells at 5 uM after 24 hrs by Annexin V-FITC/PI staining based flow cytometry (Rvb=2.30%); format: functional
KG-1a [14] = assay: Induction of apoptosis in human KG1a cells assessed as early apoptotic cells at 10 uM after 24 hrs by Annexin V-FITC/PI staining based flow cytometry (Rvb=2.40%); format: functional
[15] = Aqueous solubility of compound; format: physicochemical; conditions: buffer
KG-1a [16] = assay: Induction of apoptosis in human KG1a cells assessed as viable cells at 10 uM after 24 hrs by Annexin V-FITC/PI staining based flow cytometry (Rvb=95.1%); format: functional; conditions: read-out: Activity
KG-1a [17] = assay: Induction of apoptosis in human KG1a cells assessed as necrotic cells at 5 uM after 24 hrs by Annexin V-FITC/PI staining based flow cytometry (Rvb=0.227%); format: functional
KG-1a [18] = assay: Induction of apoptosis in human KG1a cells assessed as early apoptotic cells at 5 uM after 24 hrs by Annexin V-FITC/PI staining based flow cytometry (Rvb=2.40%); format: functional
KG-1a [19] = assay: Induction of apoptosis in human KG1a cells assessed as early apoptotic cells at 20 uM after 24 hrs by Annexin V-FITC/PI staining based flow cytometry (Rvb=2.40%); format: functional
KG-1a [20] = assay: Induction of apoptosis in human KG1a cells assessed as early apoptotic cells at 50 uM after 24 hrs by Annexin V-FITC/PI staining based flow cytometry (Rvb=2.40%); format: functional
[21] = Induction of apoptosis in human KG1a cells assessed as upregulation of caspase 9 cleavage at 2.5 to 10 uM after 24 hrs by Western blot analysis; format: functional, cell-based; conditions: KG-1a
[22] = Induction of apoptosis in human KG1a cells assessed as upregulation of PARP cleavage at 2.5 to 10 uM after 24 hrs by Western blot analysis; format: functional, cell-based; conditions: KG-1a
[23] = Cytotoxicity against human AML cells assessed as cell viability at 10 uM after 18 hrs by annexin staining based assay; format: functional; conditions: read-out: Activity
[24] = Induction of apoptosis in human KG1a cells assessed as upregulation of Bax expression at 2.5 to 10 uM after 24 hrs by Western blot analysis; format: functional, cell-based; conditions: KG-1a
[25] = Cytotoxicity against human hematopoietic stem cells after 24 hrs by MTT assay; format: cell-based
[26] = Induction of apoptosis in human KG1a cells assessed as upregulation of caspase 3 cleavage at 2.5 to 10 uM after 24 hrs by Western blot analysis; format: functional, cell-based; conditions: KG-1a
KG-1a [27] = assay: Induction of apoptosis in human KG1a cells assessed as viable cells at 50 uM after 24 hrs by Annexin V-FITC/PI staining based flow cytometry (Rvb=95.1%); format: functional; conditions: read-out: Activity
KG-1a [28] = assay: Induction of apoptosis in human KG1a cells assessed as late apoptotic cells at 50 uM after 24 hrs by Annexin V-FITC/PI staining based flow cytometry (Rvb=2.30%); format: functional
KG-1a [29] = assay: Induction of apoptosis in human KG1a cells assessed as necrotic cells at 50 uM after 24 hrs by Annexin V-FITC/PI staining based flow cytometry (Rvb=0.227%); format: functional
KG-1a [30] = assay: Induction of apoptosis in human KG1a cells assessed as late apoptotic cells at 20 uM after 24 hrs by Annexin V-FITC/PI staining based flow cytometry (Rvb=2.30%); format: functional
KG-1a [31] = assay: Induction of apoptosis in human KG1a cells assessed as late apoptotic cells at 10 uM after 24 hrs by Annexin V-FITC/PI staining based flow cytometry (Rvb=2.30%); format: functional
KG-1a [32] = assay: Induction of apoptosis in human KG1a cells assessed as necrotic cells at 10 uM after 24 hrs by Annexin V-FITC/PI staining based flow cytometry (Rvb=0.227%); format: functional
[33] = Cytotoxicity against human AML cells assessed as cell viability at 5 uM after 18 hrs by annexin staining based assay; format: functional; conditions: read-out: Activity
KG-1a [34] = assay: Induction of apoptosis in human KG1a cells assessed as viable cells at 5 uM after 24 hrs by Annexin V-FITC/PI staining based flow cytometry (Rvb=95.1%); format: functional; conditions: read-out: Activity
[35] = Selectivity index, ratio IC50 for human KG1a cells to IC50 for human HL60 cells; format: functional
HL-60 = assay: Selectivity index, ratio IC50 for human […] cells; format: functional

SMILES: C=C1CC[C@H]2C(=C)CC[C@H]3C(=C)C(=O)O[C@@H]3[C@@H]12 [DEHYDROCOSTUSLACTONE]
- pIC50 [1]: 5.29
- pIC50 [2]: 5.43
- pIC50 [3]: 4.98
- pIC50 [4]: 5.18
- pIC50 (K562): 5.28

SMILES: CN(C)C[C@@H]1C(=O)O[C@H]2[C@H]1CCC1(CC1)[C@@H]1CCC3(CC3)[C@H]21.O=C(O)/C=C/C(=O)O
- Activity (Mus musculus): Non-toxic
- TGI (KG-1a [5]): Active
- Activity (KG-1a [6]): Active

SMILES: C=C1C(=O)O[C@@H]2[C@@H]3[C@@H](CCC34CC4)C3(CC[C@@H]12)CC3
- Activity (KG-1a [7]): 3.05%
- viability at 20 µM (KG-1a [8]): 2%
- viability at 5 µM [9]: 24.2%
- pIC50 [1]: 5.17
- viability at 10 µM [10]: 0.46%
- viability at 5 µM [11]: 42.2%
- viability at 10 µM [12]: 1.9%
- Activity (KG-1a [13]): 3.51%
- Activity (KG-1a [14]): 23.3%
- solubility [15]: Insoluble
- viability at 10 µM (KG-1a [16]): 66.5%
- pIC50 [2]: 5.24
- Activity (KG-1a [17]): 0.21%
- Activity (KG-1a [18]): 6.54%
- Activity (KG-1a [19]): 49.9%
- Activity (KG-1a [20]): 45%
- Activity [21]: Active
- Activity [22]: Active
- viability at 10 µM [23]: 6.5%
- Activity [24]: Active
- pIC50 [25]: < 4.30
- Activity [26]: Active
- pIC50 [3]: 5.12
- viability at 50 µM (KG-1a [27]): 1.32%
- Activity (KG-1a [28]): 49%
- pIC50 [4]: 5.11
- Activity (KG-1a [29]): 4.71%
- Activity (KG-1a [30]): 44.4%
- Activity (KG-1a [31]): 9.13%
- Activity (KG-1a [32]): 1.05%
- viability at 5 µM [33]: 50.7%
- pIC50 (K562): 5.15
- viability at 5 µM (KG-1a [34]): 82.5%

SMILES: COc1cccc2c1C(=O)c1c(O)c3c(c(O)c1C2=O)C[C@@](O)(C(=O)CO)C[C@@H]3O[C@H]1C[C@H](N)[C@H](O)[C@H](C)O1.Cl [DOXORUBICIN HYDROCHLORIDE]
- pIC50 [1]: 5.31
- Ratio IC50 [35]: 50
- pIC50 [2]: 7.80
- pIC50 [3]: 6.09
- pIC50 [4]: 4.98
- Ratio IC50 (HL-60): 300
